In ChEMBL document CHEMBL4507273 (2021):

How the values were obtained:
[1] = target: 5-hydroxytryptamine receptor 2A (Homo sapiens, UniProt P28223); assay: GPCRScan assay: inhibition of 5-HT2A; set-up: radioligand conc. used [nm] 1.2 – 2.4, parental cells HEKT
[2] = target: Sodium-dependent dopamine transporter (Homo sapiens, UniProt Q01959); assay: GPCRScan assay: inhibition of DAT; set-up: radioligand conc. used [nm] 3.6 – 16.0, parental cells stable HEK
[3] = test system: Tyrosine-protein kinase ABL1 (Homo sapiens), P00519 [F317I]; conditions: Compound concentration 1000.0 nM
[4] = test system: Tyrosine-protein kinase ABL1 (Homo sapiens), P00519 [Q252H]; conditions: Compound concentration 1000.0 nM
[5] = target: Activin receptor type-2A (Homo sapiens) (UniProt P27037); conditions: Compound concentration 1000.0 nM
Activin receptor type-2A (Homo sapiens), sequence (P27037 whole entry): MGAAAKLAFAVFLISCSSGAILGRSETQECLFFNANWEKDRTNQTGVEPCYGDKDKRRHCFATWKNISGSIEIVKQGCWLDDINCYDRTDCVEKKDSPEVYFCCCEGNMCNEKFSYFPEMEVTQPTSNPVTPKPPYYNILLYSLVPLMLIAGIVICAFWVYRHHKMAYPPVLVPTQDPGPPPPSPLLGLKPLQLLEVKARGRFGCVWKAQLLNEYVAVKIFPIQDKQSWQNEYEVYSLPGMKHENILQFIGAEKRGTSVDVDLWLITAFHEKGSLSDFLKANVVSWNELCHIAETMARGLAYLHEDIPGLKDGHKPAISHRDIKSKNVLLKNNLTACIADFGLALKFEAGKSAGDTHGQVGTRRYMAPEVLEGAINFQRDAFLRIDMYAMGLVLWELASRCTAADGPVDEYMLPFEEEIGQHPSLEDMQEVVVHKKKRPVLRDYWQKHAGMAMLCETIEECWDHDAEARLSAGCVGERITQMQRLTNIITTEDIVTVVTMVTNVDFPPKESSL

[6] = target: Activin receptor type-2B (Homo sapiens) (UniProt Q13705); conditions: Compound concentration 1000.0 nM
[7] = target: NUAK family SNF1-like kinase 1 (Homo sapiens) (UniProt O60285); conditions: Compound concentration 1000.0 nM
[8] = target: Aurora kinase A (Homo sapiens) (UniProt O14965); conditions: Compound concentration 1000.0 nM
Aurora kinase A (Homo sapiens), sequence (O14965 whole entry): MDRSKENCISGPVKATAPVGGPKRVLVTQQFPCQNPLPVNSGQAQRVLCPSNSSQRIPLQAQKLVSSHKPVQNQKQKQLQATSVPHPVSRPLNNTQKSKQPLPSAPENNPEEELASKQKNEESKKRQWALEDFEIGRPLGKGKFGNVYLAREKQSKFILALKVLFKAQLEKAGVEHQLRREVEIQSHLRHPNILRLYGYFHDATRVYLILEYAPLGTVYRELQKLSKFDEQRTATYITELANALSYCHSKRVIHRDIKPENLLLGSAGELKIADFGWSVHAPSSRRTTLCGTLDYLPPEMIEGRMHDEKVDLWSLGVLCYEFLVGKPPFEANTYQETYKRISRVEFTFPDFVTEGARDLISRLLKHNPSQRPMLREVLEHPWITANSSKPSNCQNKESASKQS

[9] = target: Serine/threonine-protein kinase BRSK1 (Homo sapiens) (UniProt Q8TDC3); conditions: Compound concentration 1000.0 nM
[10] = target: Calcium/calmodulin-dependent protein kinase type II subunit delta (Homo sapiens) (UniProt Q13557); conditions: Compound concentration 1000.0 nM
[11] = target: Cyclin-dependent kinase-like 1 (Homo sapiens) (UniProt Q00532); conditions: Compound concentration 1000.0 nM
[12] = target: Tyrosine-protein kinase CSK (Homo sapiens) (UniProt P41240); conditions: Compound concentration 1000.0 nM
[13] = target: Casein kinase I isoform epsilon (Homo sapiens) (UniProt P49674); conditions: Compound concentration 1000.0 nM
[14] = target: Casein kinase I isoform gamma-1 (Homo sapiens) (UniProt Q9HCP0); conditions: Compound concentration 1000.0 nM
[15] = target: Casein kinase I isoform gamma-2 (Homo sapiens) (UniProt P78368); conditions: Compound concentration 1000.0 nM
[16] = target: Mitogen-activated protein kinase kinase kinase 12 (Homo sapiens) (UniProt Q12852); conditions: Compound concentration 1000.0 nM
[17] = target: Myotonin-protein kinase (Homo sapiens) (UniProt Q09013); conditions: Compound concentration 1000.0 nM
[18] = test system: Epidermal growth factor receptor (Homo sapiens), P00533 [UNDEFINED MUTATION]; conditions: Compound concentration 1000.0 nM
[19] = target: Ephrin type-B receptor 4 (Homo sapiens) (UniProt P54760); conditions: Compound concentration 1000.0 nM
[20] = target: Fibroblast growth factor receptor 2 (Homo sapiens) (UniProt P21802); conditions: Compound concentration 1000.0 nM
[21] = test system: Receptor-type tyrosine-protein kinase FLT3 (Homo sapiens), P36888 [D835V]; conditions: Compound concentration 1000.0 nM
[22] = target: Tyrosine-protein kinase FRK (Homo sapiens) (UniProt P42685); conditions: Compound concentration 1000.0 nM
[23] = target: Rhodopsin kinase GRK7 (Homo sapiens) (UniProt Q8WTQ7); conditions: Compound concentration 1000.0 nM
[24] = target: Hormonally up-regulated neu tumor-associated kinase (Homo sapiens) (UniProt P57058); conditions: Compound concentration 1000.0 nM
Hormonally up-regulated neu tumor-associated kinase (Homo sapiens), sequence (P57058 whole entry): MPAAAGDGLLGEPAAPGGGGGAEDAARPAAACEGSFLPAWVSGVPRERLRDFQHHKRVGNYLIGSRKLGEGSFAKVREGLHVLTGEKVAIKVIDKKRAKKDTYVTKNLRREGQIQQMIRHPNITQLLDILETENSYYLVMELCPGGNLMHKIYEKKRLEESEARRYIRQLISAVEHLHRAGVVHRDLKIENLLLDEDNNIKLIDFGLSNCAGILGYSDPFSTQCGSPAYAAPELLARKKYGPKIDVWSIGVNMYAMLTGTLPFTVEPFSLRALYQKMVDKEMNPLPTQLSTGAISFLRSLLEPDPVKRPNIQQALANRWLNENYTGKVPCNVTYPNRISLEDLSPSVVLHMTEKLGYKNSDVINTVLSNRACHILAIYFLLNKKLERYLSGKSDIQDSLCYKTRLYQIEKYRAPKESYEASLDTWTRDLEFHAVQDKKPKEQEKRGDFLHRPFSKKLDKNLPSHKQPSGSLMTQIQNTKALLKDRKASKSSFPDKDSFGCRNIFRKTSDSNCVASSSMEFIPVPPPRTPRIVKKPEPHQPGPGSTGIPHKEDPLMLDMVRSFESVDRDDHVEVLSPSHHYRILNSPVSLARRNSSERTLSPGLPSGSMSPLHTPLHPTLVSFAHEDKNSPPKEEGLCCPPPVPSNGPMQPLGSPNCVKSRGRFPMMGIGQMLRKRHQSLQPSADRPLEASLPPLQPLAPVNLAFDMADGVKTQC

[25] = target: Interleukin-1 receptor-associated kinase 4 (Homo sapiens) (UniProt Q9NWZ3); conditions: Compound concentration 1000.0 nM
[26] = target: Tyrosine-protein kinase ITK/TSK (Homo sapiens) (UniProt Q08881); conditions: Compound concentration 1000.0 nM
[27] = target: Serine/threonine-protein kinase LATS1 (Homo sapiens) (UniProt O95835); conditions: Compound concentration 1000.0 nM
[28] = target: Mitogen-activated protein kinase kinase kinase kinase 3 (Homo sapiens) (UniProt Q8IVH8); conditions: Compound concentration 1000.0 nM
[29] = target: Serine/threonine-protein kinase MRCK alpha (Homo sapiens) (UniProt Q5VT25); conditions: Compound concentration 1000.0 nM
[30] = target: Macrophage-stimulating protein receptor (Homo sapiens) (UniProt Q04912); conditions: Compound concentration 1000.0 nM
[31] = target: Serine/threonine-protein kinase mTOR (Homo sapiens) (UniProt P42345); conditions: Compound concentration 1000.0 nM
[32] = target: Serine/threonine-protein kinase Nek10 (Homo sapiens) (UniProt Q6ZWH5); conditions: Compound concentration 1000.0 nM
[33] = target: Mitogen-activated protein kinase kinase kinase 14 (Homo sapiens) (UniProt Q99558); conditions: Compound concentration 1000.0 nM
[34] = target: Serine/threonine-protein kinase PAK 4 (Homo sapiens) (UniProt O96013); conditions: Compound concentration 1000.0 nM
[35] = target: Platelet-derived growth factor receptor beta (Homo sapiens) (UniProt P09619); conditions: Compound concentration 1000.0 nM
[36] = target: Cyclin-dependent kinase 2 homolog (Plasmodium falciparum (isolate 3D7)) (UniProt P61075); conditions: Compound concentration 1000.0 nM
[37] = test system: Phosphatidylinositol 4,5-bisphosphate 3-kinase catalytic subunit alpha isoform (Homo sapiens), P42336 [H1047L]; conditions: Compound concentration 1000.0 nM
[38] = target: Serine/threonine-protein kinase pim-3 (Homo sapiens) (UniProt Q86V86); conditions: Compound concentration 1000.0 nM
[39] = target: Serine/threonine-protein kinase PLK3 (Homo sapiens) (UniProt Q9H4B4); conditions: Compound concentration 1000.0 nM
[40] = target: Serine/threonine-protein kinase RIO2 (Homo sapiens) (UniProt Q9BVS4); conditions: Compound concentration 1000.0 nM
[41] = target: Dual serine/threonine and tyrosine protein kinase (Homo sapiens) (UniProt Q6XUX3); conditions: Compound concentration 1000.0 nM
[42] = target: Ribosomal protein S6 kinase alpha-2 (Homo sapiens) (UniProt Q15349); conditions: Compound concentration 1000.0 nM
[43] = target: Serine/threonine-protein kinase 16 (Homo sapiens) (UniProt O75716); conditions: Compound concentration 1000.0 nM
[44] = target: Transient receptor potential cation channel subfamily M member 6 (Homo sapiens) (UniProt Q9BX84); conditions: Compound concentration 1000.0 nM
Transient receptor potential cation channel subfamily M member 6 (Homo sapiens), sequence (Q9BX84 whole entry): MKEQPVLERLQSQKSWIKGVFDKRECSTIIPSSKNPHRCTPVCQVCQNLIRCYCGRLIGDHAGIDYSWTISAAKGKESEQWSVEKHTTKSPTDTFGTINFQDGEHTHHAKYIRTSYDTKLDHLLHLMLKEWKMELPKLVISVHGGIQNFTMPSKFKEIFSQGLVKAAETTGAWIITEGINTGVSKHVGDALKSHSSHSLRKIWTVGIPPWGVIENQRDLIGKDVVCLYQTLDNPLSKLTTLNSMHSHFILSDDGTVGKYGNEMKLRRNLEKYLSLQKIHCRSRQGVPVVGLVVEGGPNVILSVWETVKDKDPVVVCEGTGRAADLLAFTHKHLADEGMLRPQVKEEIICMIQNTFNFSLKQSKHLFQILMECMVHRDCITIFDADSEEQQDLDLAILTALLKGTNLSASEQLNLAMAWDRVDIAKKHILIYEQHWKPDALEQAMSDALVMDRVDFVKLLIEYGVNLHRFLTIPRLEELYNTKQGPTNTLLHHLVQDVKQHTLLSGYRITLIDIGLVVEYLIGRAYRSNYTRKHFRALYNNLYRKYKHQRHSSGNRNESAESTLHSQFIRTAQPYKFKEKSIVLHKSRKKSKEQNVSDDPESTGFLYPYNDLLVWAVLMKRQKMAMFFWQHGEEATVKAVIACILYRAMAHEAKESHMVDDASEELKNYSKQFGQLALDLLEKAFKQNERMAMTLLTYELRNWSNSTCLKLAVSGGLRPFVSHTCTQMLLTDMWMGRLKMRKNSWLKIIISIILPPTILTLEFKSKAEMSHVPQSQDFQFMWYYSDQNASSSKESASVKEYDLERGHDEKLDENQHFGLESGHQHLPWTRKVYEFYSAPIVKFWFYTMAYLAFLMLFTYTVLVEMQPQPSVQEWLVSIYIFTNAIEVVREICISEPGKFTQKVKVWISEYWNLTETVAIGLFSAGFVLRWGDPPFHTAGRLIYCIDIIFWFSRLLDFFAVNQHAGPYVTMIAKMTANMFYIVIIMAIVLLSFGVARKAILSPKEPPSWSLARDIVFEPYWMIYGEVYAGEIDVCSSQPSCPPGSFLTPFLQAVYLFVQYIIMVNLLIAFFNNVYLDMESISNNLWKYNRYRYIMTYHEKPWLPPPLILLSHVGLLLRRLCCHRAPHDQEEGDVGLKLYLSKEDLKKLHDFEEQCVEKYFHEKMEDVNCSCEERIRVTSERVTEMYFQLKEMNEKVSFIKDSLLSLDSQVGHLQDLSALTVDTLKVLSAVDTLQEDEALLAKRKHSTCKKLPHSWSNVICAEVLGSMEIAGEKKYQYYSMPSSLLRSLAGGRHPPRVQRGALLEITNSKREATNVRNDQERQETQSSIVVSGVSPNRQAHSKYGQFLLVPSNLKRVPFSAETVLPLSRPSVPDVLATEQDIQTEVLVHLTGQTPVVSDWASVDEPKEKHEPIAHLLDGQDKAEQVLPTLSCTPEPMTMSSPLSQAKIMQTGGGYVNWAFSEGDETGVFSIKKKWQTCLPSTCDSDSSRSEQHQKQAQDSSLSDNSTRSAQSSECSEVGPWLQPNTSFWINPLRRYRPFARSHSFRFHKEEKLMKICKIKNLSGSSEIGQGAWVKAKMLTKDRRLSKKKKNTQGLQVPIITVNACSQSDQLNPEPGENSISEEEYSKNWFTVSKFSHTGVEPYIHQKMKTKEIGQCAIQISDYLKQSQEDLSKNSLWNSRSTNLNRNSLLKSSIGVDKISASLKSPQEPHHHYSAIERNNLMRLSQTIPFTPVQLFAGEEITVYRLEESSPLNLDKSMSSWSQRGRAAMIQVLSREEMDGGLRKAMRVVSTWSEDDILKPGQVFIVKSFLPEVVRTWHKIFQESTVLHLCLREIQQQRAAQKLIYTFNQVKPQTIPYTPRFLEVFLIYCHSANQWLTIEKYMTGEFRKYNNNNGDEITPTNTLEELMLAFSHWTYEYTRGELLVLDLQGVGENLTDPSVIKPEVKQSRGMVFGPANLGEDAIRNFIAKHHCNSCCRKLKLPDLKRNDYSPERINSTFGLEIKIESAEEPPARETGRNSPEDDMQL

[45] = target: Serine/threonine-protein kinase ULK1 (Homo sapiens) (UniProt O75385); conditions: Compound concentration 1000.0 nM

Sodium-dependent dopamine transporter, sequence (Q01959 whole entry): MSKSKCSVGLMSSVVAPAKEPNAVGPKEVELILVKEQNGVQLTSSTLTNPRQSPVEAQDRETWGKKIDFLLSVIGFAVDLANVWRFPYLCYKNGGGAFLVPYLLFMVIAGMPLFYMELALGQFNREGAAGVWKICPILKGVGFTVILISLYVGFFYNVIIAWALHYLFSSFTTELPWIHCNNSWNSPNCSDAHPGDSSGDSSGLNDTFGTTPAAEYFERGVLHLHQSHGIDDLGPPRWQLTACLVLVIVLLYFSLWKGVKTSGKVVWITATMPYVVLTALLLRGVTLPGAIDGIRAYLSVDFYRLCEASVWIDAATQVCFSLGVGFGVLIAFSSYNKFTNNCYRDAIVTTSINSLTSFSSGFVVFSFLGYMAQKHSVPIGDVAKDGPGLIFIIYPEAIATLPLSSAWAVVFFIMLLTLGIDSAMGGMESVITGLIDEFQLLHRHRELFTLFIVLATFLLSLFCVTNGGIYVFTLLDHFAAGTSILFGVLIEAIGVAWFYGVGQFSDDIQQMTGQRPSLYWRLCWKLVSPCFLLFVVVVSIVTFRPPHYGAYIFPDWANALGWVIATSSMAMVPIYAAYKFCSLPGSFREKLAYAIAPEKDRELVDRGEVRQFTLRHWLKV
5-hydroxytryptamine receptor 2A, sequence (P28223 whole entry): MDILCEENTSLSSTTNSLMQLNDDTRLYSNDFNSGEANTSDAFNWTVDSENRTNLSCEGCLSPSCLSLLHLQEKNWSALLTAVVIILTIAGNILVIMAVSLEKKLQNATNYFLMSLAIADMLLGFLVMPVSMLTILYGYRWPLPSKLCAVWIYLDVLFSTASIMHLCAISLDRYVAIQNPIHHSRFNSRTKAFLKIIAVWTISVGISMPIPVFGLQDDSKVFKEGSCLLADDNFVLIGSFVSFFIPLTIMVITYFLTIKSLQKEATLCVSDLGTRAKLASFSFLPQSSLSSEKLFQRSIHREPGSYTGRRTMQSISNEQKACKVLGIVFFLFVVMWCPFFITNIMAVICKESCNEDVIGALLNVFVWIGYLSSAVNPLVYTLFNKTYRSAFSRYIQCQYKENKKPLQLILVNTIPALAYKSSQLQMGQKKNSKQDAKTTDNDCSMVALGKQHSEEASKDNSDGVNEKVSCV

CNCc1ccccc1-c1csc([C@H](C)Nc2nc(C)nc3cc(OC)c(OC)cc23)c1 [BAY-294]
1670 nM: Ki ([2]; read-out: Ki)
1410 nM: Ki ([2]; read-out: pKi (converted))
69.4 nM: Ki ([1]; read-out: Ki)
inactive: residual activity [3] 100% | residual activity [4] 84% | residual activity [5] 76% | residual activity [6] 100% | residual activity [7] 90% | residual activity [8] 73% | residual activity [9] 89% | residual activity [10] 97% | residual activity [11] 100% | residual activity [12] 100% | residual activity [13] 91% | residual activity [14] 92% | residual activity [15] 100% | residual activity [16] 97% | residual activity [17] 85% | residual activity [18] 81% | residual activity [19] 100% | residual activity [20] 94% | residual activity [21] 88% | residual activity [22] 100% | residual activity [23] 89% | residual activity [24] 100% | residual activity [25] 89% | residual activity [26] 100% | residual activity [27] 100% | residual activity [28] 100% | residual activity [29] 92% | residual activity [30] 100% | residual activity [31] 100% | residual activity [32] 78% | residual activity [33] 100% | residual activity [34] 100% | residual activity [35] 99% | residual activity [36] 71% | residual activity [37] 88% | residual activity [38] 100% | residual activity [39] 87% | residual activity [40] 100% | residual activity [41] 78% | residual activity [42] 100% | residual activity [43] 100% | residual activity [44] 100% | residual activity [45] 91%

CNCc1ccccc1-c1csc([C@@H](C)Nc2nc(C)nc3cc(OC)c(OC)cc23)c1 [BAY-293]
110 nM: Ki ([1]; read-out: pKi (converted))
479 nM: Ki ([2]; read-out: pKi (converted))
522 nM: Ki ([2]; read-out: Ki)
inactive: residual activity [3] 100% | residual activity [4] 85% | residual activity [5] 94% | residual activity [6] 100% | residual activity [7] 97% | residual activity [8] 73% | residual activity [9] 87% | residual activity [10] 99% | residual activity [11] 93% | residual activity [12] 100% | residual activity [13] 99% | residual activity [14] 88% | residual activity [15] 98% | residual activity [16] 100% | residual activity [17] 86% | residual activity [18] 63% | residual activity [19] 99% | residual activity [20] 85% | residual activity [21] 70% | residual activity [22] 100% | residual activity [23] 83% | residual activity [24] 100% | residual activity [25] 76% | residual activity [26] 100% | residual activity [27] 100% | residual activity [28] 99% | residual activity [29] 67% | residual activity [30] 100% | residual activity [31] 100% | residual activity [32] 73% | residual activity [33] 93% | residual activity [34] 97% | residual activity [35] 91% | residual activity [36] 76% | residual activity [37] 95% | residual activity [38] 83% | residual activity [39] 91% | residual activity [40] 100% | residual activity [41] 83% | residual activity [42] 100% | residual activity [43] 97% | residual activity [44] 91% | residual activity [45] 88%
133 nM: Ki ([1]; read-out: Ki)
